According to patent publication US6423689B1, “Peptidyl calcium channel blockers” (Warner-Lambert Company, priority 1997, dated 2002):

What was measured:
[1] = target: T1, N-type Ca2+ channels in IMR-32 cells (Homo sapiens, UniProt Q00975); assay: Inhibition of N-type calcium flux in IMR-32 cells (Indo-1 fluorescence, nitrendipine present); type: cell-based; conditions: for inhibition at 1 µM / inhibition at 10 µM: IMR-32; for IC50: IMR-32 cells, 5 μM nitrendipine, K+ depolarization
T1 construct: host or cells: IMR-32 cells, differentiated with dibutyryl cAMP and bromodeoxyuridine
How it was run: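 With L-type flux blocked by 5 μM nitrendipine, N-type Ca2+ entry was read as the Indo-1 emission ratio (400/490 nm, excitation 350 nm) at 30° C after KCl depolarization.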

[2] = target: T2, L-type Ca2+ channels in A10 cells (Rattus norvegicus, UniProt P22002); assay: Inhibition of L-type calcium flux in A10 cells (FLIPR); type: cell-based
T2 construct: which endogenously expresses L-type calcium channels; host or cells: A10 rat aortic smooth muscle cells
Description: Measurement of L-type Ca^2+ Channel Blocking Potencies of Compounds in A10 cells
Calcium flux through voltage-sensitive calcium channels was assessed by time-resolved monitoring of the fluorescence of pre-loaded calcium-sensitive dyes using FLIPR, a fluorescent image plate reader (Molecular Devices Co.). The A10 smooth muscle cell line derived from embryonic thoracic aorta of the DBIX rat (ATCC, CRL-1476) which endogenously expresses L-type calcium channels. The growth media for A10 cells was Ham's F12/DME high glucose (Irvine Scientific, 9052), supplemented with 20% fetal bovine serum (HyClone Labs, A-1115-L), and 1% each of L-glutamine and antibiotic-antimycotic (same source as above).
Cells were grown to confluency and replated on black-sided 96-well plates (Costar, 3603) for use in FLIPR. Two days after replating, growth media was removed and cells were loaded at 37° C. with 100 μL media containing 1 μM Oregon Green 488 Bapta-1 dye (Molecular Probes, O-6807) for 1 to 3 hours. The dye-containing media was then washed away with buffer (composition in mM: 1.25 CaCl2, 1.2 MgSO4, 11 glucose, 10 HEPES, 3.0 KCl, 137.0 NaCl, pH 7.4 with Tris base) in a Denley Cellwash (Labsystems, CW018B). The residual buffer volume was adjusted to 50 μL. A 5 minute drug-pre-incubation period at 35° C. was initiated when 50 μL of drug-containing buffer was pipetted into the cell plate with the 96-well pipettor integrated in the FLIPR apparatus. Fluorescent counts were monitored at 20 second intervals for 360 seconds, beginning 60 seconds prior to the delivery of drug-containing buffer. Following drug addition, 100 μL aliquots of a high K^+, depolarizing stimulus (composition in mM: 1.25 CaCl2, 1.2 MgSO4, 11 glucose, 10 HEPES, 140.0 KCl, pH 7.4 with Tris base) were added to each well and fluorescence was monitored at 1 second intervals for 120 seconds, beginning 10 seconds prior to the stimulus addition. CCD camera exposure time was 0.4 seconds, laser excitation was at 488 nm with a power of 0.2-0.5W, and a 510 to 560 nm bandpass interference filter preceded the camera.
Data was analyzed as a summation of fluorescent counts above basal during the stimulation period (an approximation of area under the curve), after normalizing the data with a spatial uniformity correction (for variations in laser illumination and cell density) and a negative control correction (zero calcium increase defined as the fluorescence reading in the presence of saturating pharmacologic block of the respective calcium channel). Drug effects were expressed as percent inhibition of fluorescence from an average of 8 K^+-stimulated wells which were pre-treated in the drug incubation period with buffer only.
In the A10 cells, the pharmacologic agent used to define zero calcium influx was nitrendipine (RBI, N-144), at a final concentration of 1.0×10^−6 M.

T1 sequence (Q00975 whole entry): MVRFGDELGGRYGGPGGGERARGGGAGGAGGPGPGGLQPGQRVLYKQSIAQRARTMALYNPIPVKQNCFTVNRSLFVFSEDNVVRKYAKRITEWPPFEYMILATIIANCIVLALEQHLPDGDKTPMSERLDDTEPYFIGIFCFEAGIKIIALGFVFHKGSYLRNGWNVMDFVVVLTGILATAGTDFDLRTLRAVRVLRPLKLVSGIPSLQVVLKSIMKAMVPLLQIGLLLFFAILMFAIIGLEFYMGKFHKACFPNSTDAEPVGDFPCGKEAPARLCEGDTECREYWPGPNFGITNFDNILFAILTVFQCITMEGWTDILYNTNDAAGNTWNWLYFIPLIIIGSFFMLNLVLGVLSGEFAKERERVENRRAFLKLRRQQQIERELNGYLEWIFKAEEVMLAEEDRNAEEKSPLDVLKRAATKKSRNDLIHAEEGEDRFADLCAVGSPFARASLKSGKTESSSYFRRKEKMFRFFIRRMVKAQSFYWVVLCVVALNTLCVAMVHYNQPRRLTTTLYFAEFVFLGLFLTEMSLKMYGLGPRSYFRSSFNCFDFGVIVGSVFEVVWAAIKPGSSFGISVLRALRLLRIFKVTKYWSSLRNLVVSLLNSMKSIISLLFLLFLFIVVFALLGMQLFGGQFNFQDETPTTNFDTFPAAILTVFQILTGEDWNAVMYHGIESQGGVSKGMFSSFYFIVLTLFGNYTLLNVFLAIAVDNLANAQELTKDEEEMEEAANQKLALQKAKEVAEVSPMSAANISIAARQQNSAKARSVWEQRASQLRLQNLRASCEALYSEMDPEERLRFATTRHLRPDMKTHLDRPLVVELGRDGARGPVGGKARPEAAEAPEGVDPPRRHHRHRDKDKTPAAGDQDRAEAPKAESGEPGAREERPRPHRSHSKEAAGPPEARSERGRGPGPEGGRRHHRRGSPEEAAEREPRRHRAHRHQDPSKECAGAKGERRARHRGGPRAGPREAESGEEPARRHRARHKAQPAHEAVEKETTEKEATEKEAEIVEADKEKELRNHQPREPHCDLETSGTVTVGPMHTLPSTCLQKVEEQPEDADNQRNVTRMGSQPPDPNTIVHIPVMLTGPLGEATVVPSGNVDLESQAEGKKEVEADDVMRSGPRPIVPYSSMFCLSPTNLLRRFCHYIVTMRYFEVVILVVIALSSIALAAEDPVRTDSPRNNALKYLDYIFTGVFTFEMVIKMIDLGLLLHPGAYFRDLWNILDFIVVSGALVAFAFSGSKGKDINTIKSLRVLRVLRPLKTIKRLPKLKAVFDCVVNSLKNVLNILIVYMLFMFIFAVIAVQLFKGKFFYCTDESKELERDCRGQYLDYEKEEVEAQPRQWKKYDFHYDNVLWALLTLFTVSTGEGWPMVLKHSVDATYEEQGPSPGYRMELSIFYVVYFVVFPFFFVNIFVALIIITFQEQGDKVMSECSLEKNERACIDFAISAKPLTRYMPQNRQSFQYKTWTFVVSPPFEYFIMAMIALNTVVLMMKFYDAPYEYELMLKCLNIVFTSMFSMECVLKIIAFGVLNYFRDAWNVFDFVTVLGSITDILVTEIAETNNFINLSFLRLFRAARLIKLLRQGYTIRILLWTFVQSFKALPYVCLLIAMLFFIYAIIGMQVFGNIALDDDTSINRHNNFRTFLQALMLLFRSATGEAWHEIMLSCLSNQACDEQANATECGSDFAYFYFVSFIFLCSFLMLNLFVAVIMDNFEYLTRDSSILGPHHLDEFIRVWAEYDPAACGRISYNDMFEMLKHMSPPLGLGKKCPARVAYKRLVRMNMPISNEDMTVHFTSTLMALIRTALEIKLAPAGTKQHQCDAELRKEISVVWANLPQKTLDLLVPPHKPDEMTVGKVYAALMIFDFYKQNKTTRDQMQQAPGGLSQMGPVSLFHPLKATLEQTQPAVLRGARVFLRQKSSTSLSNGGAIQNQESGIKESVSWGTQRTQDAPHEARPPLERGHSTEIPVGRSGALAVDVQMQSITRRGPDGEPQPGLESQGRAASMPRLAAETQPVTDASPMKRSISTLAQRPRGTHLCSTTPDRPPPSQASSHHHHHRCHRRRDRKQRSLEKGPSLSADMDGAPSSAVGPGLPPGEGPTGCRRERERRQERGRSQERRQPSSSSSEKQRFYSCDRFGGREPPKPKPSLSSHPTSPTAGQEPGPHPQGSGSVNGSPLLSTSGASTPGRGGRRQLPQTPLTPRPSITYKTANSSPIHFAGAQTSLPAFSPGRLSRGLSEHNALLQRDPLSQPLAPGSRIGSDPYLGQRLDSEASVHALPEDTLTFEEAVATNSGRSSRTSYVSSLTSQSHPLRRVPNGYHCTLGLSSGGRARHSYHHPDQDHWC
T1 sequence (P54289 25-956 partner limits assumed): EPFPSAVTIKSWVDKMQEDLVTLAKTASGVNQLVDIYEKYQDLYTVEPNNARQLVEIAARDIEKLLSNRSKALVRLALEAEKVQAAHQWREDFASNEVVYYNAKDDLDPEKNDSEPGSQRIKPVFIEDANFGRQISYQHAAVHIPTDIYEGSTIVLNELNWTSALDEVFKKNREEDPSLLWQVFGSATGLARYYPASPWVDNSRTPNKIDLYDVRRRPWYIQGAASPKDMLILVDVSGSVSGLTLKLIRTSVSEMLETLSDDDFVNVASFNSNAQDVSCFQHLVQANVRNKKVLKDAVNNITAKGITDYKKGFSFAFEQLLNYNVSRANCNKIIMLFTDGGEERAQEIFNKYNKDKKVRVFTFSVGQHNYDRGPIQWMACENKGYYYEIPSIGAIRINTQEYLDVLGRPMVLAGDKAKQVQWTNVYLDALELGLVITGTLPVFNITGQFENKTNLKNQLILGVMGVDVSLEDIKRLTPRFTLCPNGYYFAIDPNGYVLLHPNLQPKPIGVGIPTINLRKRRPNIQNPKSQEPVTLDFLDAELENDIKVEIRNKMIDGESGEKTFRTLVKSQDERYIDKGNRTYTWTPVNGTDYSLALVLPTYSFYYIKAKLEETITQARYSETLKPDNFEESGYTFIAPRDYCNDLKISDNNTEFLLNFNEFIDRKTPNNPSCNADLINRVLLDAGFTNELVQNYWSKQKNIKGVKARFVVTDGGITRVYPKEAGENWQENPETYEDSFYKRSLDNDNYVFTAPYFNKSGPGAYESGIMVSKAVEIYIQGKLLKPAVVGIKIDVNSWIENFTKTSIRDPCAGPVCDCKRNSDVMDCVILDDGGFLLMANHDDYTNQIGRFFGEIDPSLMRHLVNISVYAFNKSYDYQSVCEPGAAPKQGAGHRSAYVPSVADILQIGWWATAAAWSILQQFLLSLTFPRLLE
T1 sequence (P54289 957-1103 partner limits assumed): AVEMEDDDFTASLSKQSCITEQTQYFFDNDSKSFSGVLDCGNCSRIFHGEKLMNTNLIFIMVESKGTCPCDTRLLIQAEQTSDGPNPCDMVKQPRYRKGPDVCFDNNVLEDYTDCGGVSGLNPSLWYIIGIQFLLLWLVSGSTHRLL
T1 sequence (P54284 whole entry partner): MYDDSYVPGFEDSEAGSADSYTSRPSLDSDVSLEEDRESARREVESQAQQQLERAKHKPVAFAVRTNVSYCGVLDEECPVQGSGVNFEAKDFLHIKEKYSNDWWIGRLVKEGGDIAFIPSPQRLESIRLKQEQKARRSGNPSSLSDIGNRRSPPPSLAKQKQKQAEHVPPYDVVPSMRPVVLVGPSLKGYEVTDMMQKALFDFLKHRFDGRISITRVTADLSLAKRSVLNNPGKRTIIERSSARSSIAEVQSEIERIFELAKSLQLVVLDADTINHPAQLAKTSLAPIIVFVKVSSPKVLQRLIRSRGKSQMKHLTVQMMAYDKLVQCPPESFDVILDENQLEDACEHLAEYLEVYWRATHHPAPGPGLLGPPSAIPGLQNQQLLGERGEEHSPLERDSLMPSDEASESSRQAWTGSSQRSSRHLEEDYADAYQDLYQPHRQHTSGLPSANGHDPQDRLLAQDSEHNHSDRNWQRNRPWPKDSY

Structure (SMILES) | Inhibition of Calcium Flux in IMR-32 Cells % Inhibition at 1 μM ([1]; 1 μM) | Inhibition of Calcium Flux in IMR-32 Cells % Inhibition at 10 μM ([1]; 10 μM) | IC50 [2] | inhibition at 1 µM [1] | inhibition at 10 µM [1] | melting point | IC50 [1]
CC(C)C[C@H](NC(=O)N1CCCCCC1)C(=O)N[C@@H](Cc1ccc(C#CC(C)(C)C)cc1)C(=O)NC(C)(C)C [Example 135, [S-(R*,R*)]-Azepane-1-carboxylic acid (1-{1-tert-butylcarbamoyl-2-[4-(3,3-dimethyl-but-1-ynyl)-phenyl]-ethylcarbamoyl}-3-methyl-butyl)-amide] |  |  | 670 nM | 43% | 71% | 180 to 181 °C | 
CC(C)C[C@H](NC(=O)N1CCCCCC1)C(=O)N[C@@H](Cc1ccc(C#CC2CCCCC2)cc1)C(=O)NC(C)(C)C [Example 136, [S-(R*,R*)]-Azepane-1-carboxylic acid {1-[1-tert-butylcarbamoyl-2-(4-cyclohexylethynyl-phenyl)-ethylcarbamoyl]-3-methyl-butyl}-amide] |  |  | 1550 nM | 45% | 64% | 171 to 172 °C | 
CC(C)C[C@H](NC(=O)N1CCCCCC1)C(=O)N[C@@H](Cc1ccc(C#CCN2CCS(=O)(=O)CC2)cc1)C(=O)NC(C)(C)C [Example 140, [S-(R*,R*)]-Azepane-1-carboxylic acid [1-(1-tert-butylcarbamoyl-2-{4-[3-(1,1-dioxo-1l,6-thiomorpholin-4-yl)-prop-1-ynyl]-phenyl}-ethylcarbamoyl)-3-methyl-butyl]-amide] |  |  | 3000 nM |  |  | 117 to 118 °C | 
CC(C)C[C@H](NC(=O)N1CCCCCC1)C(=O)N[C@@H](Cc1ccc(/C=C\C2CCCCC2)cc1)C(=O)NC(C)(C)C [Example 142, [S-(R*,R*),Z]-Azepane-1-carboxylic acid (1-{1-tert-butylcarbamoyl-2-[4-(2-cyclohexyl-vinyl)-phenyl]-ethylcarbamoyl}-3-methyl-butyl)-amide] |  |  | 680 nM |  |  | 168 to 169 °C | 
CC(C)C[C@H](NC(=O)N1CCCCCC1)C(=O)N[C@@H](Cc1ccc(CCc2ccccc2)cc1)C(=O)NC(C)(C)C [Example 144, [S-(R*,R*)]-Azepane-1-carboxylic acid {1-[1-tert-butylcarbamoyl-2-(4-phenethyl-phenyl)-ethylcarbamoyl]-3-methyl-butyl}-amide] |  |  | 550 nM | 61% | 86% | 155 to 156 °C | 
CC(C)C[C@H](NC(=O)N1CCCCCC1)C(=O)N[C@@H](Cc1ccc(CCC(C)(C)C)cc1)C(=O)NC(C)(C)C [Example 145, [S-(R*,R*)]-Azepane-1-carboxylic acid (1-{1-tert-butylcarbamoyl-2-[4-(3,3-dimethyl-butyl)-phenyl]-ethylcarbamoyl}-3-methyl-butyl)-amide] |  |  | 250 nM | 48% |  | 180 to 181 °C | 
CC(C)C[C@H](NC(=O)N1CCCCCC1)C(=O)N[C@@H](Cc1ccc(CCc2ccccn2)cc1)C(=O)NC(C)(C)C [Example 147, [S-(R*,R*)]-Azepane-1-carboxylic acid (1-{1-tert-butylcarbamoyl-2-[4-(2-pyridin-2-yl-ethyl)-phenyl]-ethylcarbamoyl}-3-methyl-butyl)-amide] |  |  | 5100 nM | 25% | 71% | 154 to 156 °C | 
CC(C)C[C@H](NC(=O)N1CCCCCC1)C(=O)N[C@@H](Cc1ccc(CCCN2CCS(=O)(=O)CC2)cc1)C(=O)NC(C)(C)C [Example 150, [S-(R*,R*)]-Azepane-1-carboxylic acid [1-(1-tert-butylcarbamoyl-2-{4-[3-(1,1-dioxo-1l,6-thiomorpholin-4-yl)-propyl]-phenyl}-ethylcarbamoyl)-3-methyl-butyl]-amide] |  |  | 3000 nM |  |  | 92 to 93 °C | 

Now from value to compound:

Inhibition of Calcium Flux in IMR-32 Cells % Inhibition at 1 μM ([1]; 1 μM) | Inhibition of Calcium Flux in IMR-32 Cells % Inhibition at 10 μM ([1]; 10 μM) | IC50 [2] | inhibition at 1 µM [1] | inhibition at 10 µM [1] | melting point | IC50 [1] | Structure (SMILES)
10% | 19% | 3000 nM |  |  |  |  | COc1cc(NC(=O)N[C@@H](CC(C)C)C(=O)N[C@@H](Cc2ccc(OCc3ccccc3)cc2)C(=O)OC(C)(C)C)cc(OC)c1OC (relative stereo) [Example 67, [S-(R*,R*)]-3-(4-Benzyloxy-phenyl)-2-{4-methyl-2-[3-(3,4,5-trimethoxy-phenyl)-ureido]-pentanoylamino}-propionic acid tert-butyl ester]
 |  | 140 nM | 61% | 89% | 165 to 166 °C |  | CC(C)C[C@H](NC(=O)N1CCCCCC1)C(=O)N[C@@H](Cc1ccc(Cc2ccccc2)cc1)C(=O)NC(C)(C)C [Example 53, [S-(R*,R*)]-Azepane-1-carboxylic acid {1-[2-(4-benzyl-phenyl)-1-tert-butylcarbamoyl-ethylcarbamoyl]-3-methyl-butyl}-amide]
 |  | 910 nM | 37% | 83% | 89 to 90 °C | 900 nM | CC(C)C[C@H](NC(=O)N1CCCCCC1)C(=O)N[C@@H](Cc1ccc(NCc2ccccc2)cc1)C(=O)NC(C)(C)C [Example 132, [S-(R*,R*)]-Azepane-1-carboxylic acid {1-[2-(4-benzylamino-phenyl)-1-tert-butylcarbamoyl-ethylcarbamoyl]-3-methyl-butyl}-amide]
 |  | 2600 nM |  |  |  |  | CC(C)C[C@H](NC(=O)N1CCCCCC1)C(=O)N[C@@H](Cc1ccc(C#Cc2ccccn2)cc1)C(=O)NC(C)(C)C [Example 137, [S-(R*,R*)]-Azepane-1-carboxylic acid {1-[1-tert-butylcarbamoyl-2-(4-pyridin-2-ylethynyl-phenyl)-ethylcarbamoyl]-3-methyl-butyl}-amide]
 |  | 1300 nM | 7% | 58% | 125 °C (dec.) |  | CC(C)C[C@H](NC(=O)N1CCCCCC1)C(=O)N[C@@H](Cc1ccc(C=CC2(O)CCCCC2)cc1)C(=O)NC(C)(C)C [Example 143, [S-(R*,R*)]-Azepane-1-carboxylic acid [1-(1-tert-butylcarbamoyl-2-{4-[2-(1-hydroxy-cyclohexyl)-vinyl]-phenyl}-ethylcarbamoyl)-3-methyl-butyl]-amide]
 |  | 220 nM | 51% |  | 165 °C |  | CC(C)C[C@H](NC(=O)N1CCCCCC1)C(=O)N[C@@H](Cc1ccc(CCC2CCCCC2)cc1)C(=O)NC(C)(C)C [Example 146, [S-(R*,R*)]-Azepane-1-carboxylic acid (1-{1-tert-butylcarbamoyl-2-[4-(2-cyclohexyl-ethyl)-phenyl]-ethylcarbamoyl}-3-methyl-butyl)-amide]
 |  | 970 nM | 30% | 68% | 101 to 102 °C |  | CC(C)C[C@H](NC(=O)N1CCCCCC1)C(=O)N[C@@H](Cc1ccc(CCC2(O)CCCCC2)cc1)C(=O)NC(C)(C)C [Example 148, [S-(R*,R*)]-Azepane-1-carboxylic acid [1-(1-tert-butylcarbamoyl-2-{4-[2-(1-hydroxy-cyclohexyl)-ethyl]-phenyl}-ethylcarbamoyl)-3-methyl-butyl]-amide]
 |  | 3000 nM |  |  |  | 1800 nM | CC(C)C[C@H](NC(=O)N1CCCCCC1)C(=O)N[C@@H](Cc1ccc(OCc2ccccc2)cc1)C(=O)NCCN1CCOCC1 [Example 186, [S-(R*,R*)]-Azepane-1-carboxylic acid {1-[2-(4-benzyloxy-phenyl)-1-(2-morpholin-4-ylethylcarbamoyl)-ethylcarbamoyl]-3-methyl-butyl}-amide]
